Test [1] concerns spleen lymphocytes. The test can be described thus: In vitro lymphocyte stimulation assay, C57BL/6 spleen lymphocytes. It is filed as cell-based, mouse. The protocol: The purpose of this assay is to challenge lymphocytes in microcultures with one or more polyclonal mitogens at concentrations that will induce mitogenesis within 72 hours of stimulation.
In the mouse model, spleens are removed from different strains of mice and the spleen cells are teased free and suspended in RPMI-1640 tissue culture medium at a concentration of usually […]. These cells are dispensed at a concentration of 5.0×10^5 cells per microculture well in a 96 well flat bottom 96 well tissue culture plate. All testing of the compounds of this invention or mitogens are done in replicates of 10. The cells are then treated with PHA, Con-A, specific antigens, or buffer only. If in vitro testing is done, varying concentrations of the compounds of this invention or buffer only are added to the cells as well. After treatment with the mitogens and/or compounds of this invention, the cells are incubated for 72 hours. The response of these cells to mitogens and/or the compounds of this invention is assessed using ^14 C-thymidine labeling on the fourth day at a concentration of 0.01 μCi/well. The labeled cells are harvested using a lymphocyte harvestor and placed onto fibrous paper discs. A scintillation cocktail is added to vials containing the discs and the results are obtained using a LKB-liquid scintillation counter (Model 1216/Rackbeta II). The data is expressed as a ratio of the cpm of the mitogen stimulated group to the control (nonmitogen) treated group=lymphocyte stimulation index (LSI).
The lymphocyte stimulation assay may be performed directly on spleen cells obtained from various strains of mice not treated with the compounds of this invention or on lymphocytes obtained from human […]. […] Alternatively, the mice may be treated in vivo with the compounds of this invention by intraperitoneal multi-dose schedules, followed by sacrifice and harvesting spleen lymphocytes. These cells are then tested for their response to polyclonal mitogens or specific antigens used to immunize the mice. In this system however, no additional compound is added to the in vitro lymphocyte stimulation assay system.
An in vitro lymphocyte stimulation assay is performed directly on normal spleen lymphocytes removed from five normal C57BL/6 mice, using concentrations of Cpd. […] Following three days of incubation the assay is completed.
An in vitro lymphocyte stimulation assay was performed using spleen lymphocytes from normal C57BL/6 mice. The lymphocytes were treated with either 1, 5, 10, 50 or 100 μg/well of Cpd. 1 or buffer.
Cpd. 2 was tested using normal spleen lymphocytes from C57BL/6 mice. A lymphocyte stimulation assay was conducted using either 1, 5, 10, 50, or 100 μg/well […] or just buffer.
Spleen cells from C57BL/6 mice were treated, in vitro, with the crystallizing reagents, succinic acid and succinimide. Since these compounds are spontaneously released from the molecular complex in solution at a molar ratio of 2 moles of Cpds. 1, 2, or 3 per mole of the crystalline reagent, these reagents were treated in the lymphocyte stimulation assay at proper molar concentrations.
The compound of example 3, Cpd. 3, was used to treat C57BL/6 spleen lymphocytes in vitro. The lymphocytes were treated with either 1, 5, 10, 50, or 100 μg/well of Cpd. 3 or just buffer and then a lymphocyte stimulation assay was performed.

The test system of test [2] is KLH antibody response. To be noted: for increase of antibody titer over control (fold): 200 and 400 mg/kg. From the text: The effect of the compounds of this invention on the immune response to specific antigens involves immunization of mice with specific antigens such as bovine serum albumin (BSA) or keyhole limpet hemocyanin (KLH). Following immunization, it is possible to assess the cell-mediated or humoral (antibody) immune response to these antigens by various methods:
(2) Antibody response to soluble antigens such as BSA or KLH can be quantitated using a micro-ELISA solid phase heterogeneous immunoassay. The assay can be designed to quantitate class specific immunoglobulins (i.e., IgG or IgM).
Mice of the C57BL/6 strain are given i.p. injections of either 50, 100, 200 or 400 mg/kg of Cpd. 1 or buffer for ten days (days 1-10). An antigen, keyhole limpet hemocyanin (KLH), is administered intraperitoneally with Freund's Complete Adjuvant (FCA) on days 1, 7, and 13. Blood samples are taken for assay of the antibody response on days 0, 5, 12, and 17. Spleens are removed, lymphocytes isolated and a lymphocyte stimulation assay with PHA, Con-A or KLH antigen as the mitogens is performed on day 17 of the experiment.

Test [3] relates to L5178Y tumor cells. To be noted: for No. Survivors: 100 mg/kg. The protocol:
Ten days later the resultant tumor nodule, about 1 cm in size, is surgically excised. If the excision was successful, no subcutaneous tumors develop at the site of implantation. […] These mice are considered to be in the tumor dormant state.
The effect of Cpd. 1 on the establishment of the L5178Y tumor dormant state is studied by treating forty DBA/2 mice with Cpd. 1 after the mice have undergone the TDS inducing procedure. […] 1 at 100 mg/kg and the remaining twenty mice receive buffer only. A partial peritoneal lavage is performed twenty-five days after the last dose of Cpd. 1 and the peritoneal exudate fluid is plated out for determination of tumor cell numbers (tumor cell quantitative assay). Survival time is recorded out to 90 days after challenge with the viable L5178Y tumor cells. The percent mortality is calculated for each group.
The effect of Cpd. 1 on the establishment of the L5178Y tumor dormant state was studied by treating forty DBA/2 mice with Cpd. 1 after the mice had undergone the TDS inducing procedure. Two days after the mice were challenged with i.p. administration of 50,000 viable L5178Y tumor cells, twenty of these mice received seven consecutive days of i.p. treatment with Cpd. 1 at 100 mg/kg and the remaining twenty mice received buffer only. A partial peritoneal lavage was performed twenty-five days after the last dose of Cpd. 1 and the peritoneal exudate fluid was plated out for determination of tumor cell numbers (tumor cell quantitative assay). Survival time was recorded out to 114 days after challenge with the viable L5178Y tumor cells. The percent mortality was calculated for each group.

[4] abbreviates: No. tumor cells >100,000, 100 mg/kg i.p., 7 days.

Values joined by “and” are separate entries in the source; they are usually repeats but may differ in a detail not shown here. Identical values can stand only once. “Also recorded” adds a separate entry of the source. Like-named read-outs stand apart in the source and are kept apart here.

We go through 2 compounds from patent publication US4518611A, “2-Furylbutyrolactone modulation of the immune system in mammals” (priority 1983, dated 1985).

For the compound `Cc1ccc(C2(O)C(=O)OC3C(O)COC32O)o1.Cc1ccc(C2(O)C(=O)OC3C(O)COC32O)o1.O=C1CCC(=O)O1` (stereo not drawn) [Cpd. 1, 2-furylbutyrolactone:succinic anhydride], the “Lymphocyte Stimulation Index, Control (no mitogen)” value in test [1] (5 μg/well) is on record as 1.8; in test [1] (50 μg/well), “.20”; in test [1] (100 μg/well), “.20”; in test [1] (.001 μg/well) it was 3.8; in test [1] (.01 μg/well), 3.2; in test [1] (.1 μg/well), 3.2. For the same compound, the “Micro-ELISA Titer” value in test [2] (50 mg/kg i.p., Day 5) is listed as “N/R”; in test [2] (50 mg/kg i.p., Prebleed), “N/R”; in test [2] (100 mg/kg i.p., Day 5), “N/R”; in test [2] (100 mg/kg i.p., Prebleed), “N/R”; in test [2] (200 mg/kg i.p., Day 5) it was “N/R”; in test [2] (200 mg/kg i.p., Prebleed) it was “N/R”. Besides, the “Micro-ELISA Titer” value is recorded as “N/R” in test [2] (400 mg/kg i.p., Day 5) and “N/R” in test [2] (400 mg/kg i.p., Prebleed). In addition, the figures for the “increase of antibody titer over control (fold)” value in test [2] (day 12) and in test [2] (day 17) were “four-fold” and “eight-fold”, respectively. Further, the “numbers of tumor cells recovered (in words)” value in test [3] (100 mg/kg i.p., 7 days) is on record as “significant reduction in the numbers of tumor cells recovered”. In test [3] (100 mg/kg i.p., 7 days), the “survival (in words)” value is “significantly greater survival”. Further, the “No. Survivors” value in test [3] (90 days post-challenge) is 10; in test [3] (114 days post-challenge), 19. Besides, the “Frequency (mice), treated group” value was 7 and 4 in test [3] (No. tumor cells 1,000 to 100,000, 100 mg/kg i.p., 7 days); 1 in test [3] (setting [4]). The “% of Total, treated group” value in test [3] (setting [4]) is 6% and 4.3%.
“2-furylbutyrolactone:succinimide [Cpd. 2]”: the “Lymphocyte Stimulation Index, Con-A” value turned out to be 147 in test [1] (1 μg/well); 148 in test [1] (5 μg/well); 164 in test [1] (10 μg/well); 218 in test [1] (50 μg/well); 144 in test [1] (100 μg/well). Also, the “Lymphocyte Stimulation Index, Control (no mitogen)” value is “.92” in test [1] (1 μg/well); 1.2 in test [1] (5 μg/well); 1.1 in test [1] (10 μg/well); “.80” in test [1] (50 μg/well); “.49” in test [1] (100 μg/well). The “Lymphocyte Stimulation Index, PHA” value in test [1] (1 μg/well) is on record as 25.4; in test [1] (5 μg/well) it was 29.8; in test [1] (10 μg/well) it was 38.8; in test [1] (50 μg/well), 45.8; in test [1] (100 μg/well), 3.83. Further, the “effect on Con-A response (in words)” value in test [1] (in vitro, Con-A) is on record as “the 200 μg/well dose had a stimulatory effect; also recorded: the 400 μg/well doses had an anti-proliferative effect”.
